# Laboratory results: PMC11995724, “Antibiotic target discovery by integrated phenotypic and activity-based profiling of electrophilic fragments” (Cell chemical biology, 2025)
# Experiment: in vitro
# Conditions: human, hek293t cells
row,SMILES,"viability at 48 h, 25 µM [%]"
1,"Cc1ccc(C=C(C#N)C(=O)NC(C)C)s1 [9-O11, 2-cyano-3-(5-methylthiophen-2-yl)-N-(propan-2-yl)prop-2-enamide]",139
2,"COc1ccc(C=C(C#N)C(=O)Nc2ccc(C)cc2)cc1O [9-O12, 2-cyano-3-(3-hydroxy-4-methoxyphenyl)-N-(4-methylphenyl)prop-2-enamide]",109
3,"CC1=C(C#N)C(=O)N(C2CCS(=O)(=O)C2)C(=O)C1=Cc1ccco1 (stereo not drawn) [9-O13, 1-(1,1-dioxo-1lambda6-thiolan-3-yl)-5-[(furan-2-yl)methylidene]-4-methyl-2,6-dioxo-1,2,5,6-tetrahydropyridine-3-carbonitrile]",99
4,"N#CC(=Cc1cnn(Cc2ccccc2)c1)C(=O)NC1CCCC1 [9-O14, 3-(1-benzyl-1H-pyrazol-4-yl)-2-cyano-N-cyclopentylprop-2-enamide]",80.2
5,"CCc1cccc(CC)c1NC(=O)C(C#N)=Cc1ccc(C#N)cc1 [9-O15, 2-cyano-3-(4-cyanophenyl)-N-(2,6-diethylphenyl)prop-2-enamide]",36.5
6,"N#CC(=Cc1cccc(O)c1)C(=O)Nc1ccccc1C(=O)O [9-O16, 2-[2-cyano-3-(3-hydroxyphenyl)prop-2-enamido]benzoic acid]",125
7,"N#CC(=Cc1ccc(C#N)cc1)C(=O)Nc1ccccc1Cl [9-O17, N-(2-chlorophenyl)-2-cyano-3-(4-cyanophenyl)prop-2-enamide]",131
8,"Cc1cccc(NC(=O)C(C#N)=Cc2cnc3ccc(C#N)cn23)c1 [9-O18, 2-cyano-3-{6-cyanoimidazo[1,2-a]pyridin-3-yl}-N-(3-methylphenyl)prop-2-enamide]",132
9,"COc1cc(C=C(C#N)C(=O)NC2CC2)cc(OC)c1O [9-O19, 2-cyano-N-cyclopropyl-3-(4-hydroxy-3,5-dimethoxyphenyl)prop-2-enamide]",124
10,"N#CC(=Cc1ccccc1[N+](=O)[O-])C(=O)Nc1ccc2c(c1)OCCO2 [9-O20, 2-cyano-N-(2,3-dihydro-1,4-benzodioxin-6-yl)-3-(2-nitrophenyl)prop-2-enamide]",108
11,"Cc1ccc(-n2c(C)cc(C=C(C#N)C(=O)N3CCCCC3)c2C)cc1 [9-O21, 3-[2,5-dimethyl-1-(4-methylphenyl)-1H-pyrrol-3-yl]-2-(piperidine-1-carbonyl)prop-2-enenitrile]",87.8
12,"Cc1ccc(C)c(C=C(C#N)C(=O)NC(C)C)c1 [9-O22, 2-cyano-3-(2,5-dimethylphenyl)-N-(propan-2-yl)prop-2-enamide]",125
13,"N#CC(=Cc1cccc(F)c1)C(=O)Nc1cc(Cl)ccc1Cl [9-P03, 2-cyano-N-(2,5-dichlorophenyl)-3-(3-fluorophenyl)prop-2-enamide]",109
14,"Cc1cc(C=C(C#N)C(=O)N2CC[C@H](O)C2)c(C)n1CC1CCCO1 (stereo partly drawn) [9-P04, 3-{2,5-dimethyl-1-[(oxolan-2-yl)methyl]-1H-pyrrol-3-yl}-2-[(3S)-3-hydroxypyrrolidine-1-carbonyl]prop-2-enenitrile]",131
15,"CCOc1ccccc1NC(=O)C(C#N)=Cc1ccc2c(c1)OCO2 [9-P05, 3-(1,3-dioxaindan-5-yl)-2-cyano-N-(2-ethoxyphenyl)prop-2-enamide]",136
16,"N#CC(=Cc1c(F)cccc1Cl)C(=O)Nc1ccc(C(=O)O)cc1 [9-P06, 4-[3-(2-chloro-6-fluorophenyl)-2-cyanoprop-2-enamido]benzoic acid]",142
17,"C=CCNC(=O)C(C#N)=Cc1sccc1C [9-P07, 2-cyano-3-(3-methylthiophen-2-yl)-N-(prop-2-en-1-yl)prop-2-enamide]",117
18,"COc1cc(C=C(C#N)C(=O)Nc2ccccn2)ccc1O [9-P08, 2-cyano-3-(4-hydroxy-3-methoxyphenyl)-N-(pyridin-2-yl)prop-2-enamide]",124
19,"CCN1C(=O)C(=Cc2ccc(-c3ccc(F)cc3)o2)C(C)=C(C#N)C1=O [9-P09, 1-ethyl-5-{[5-(4-fluorophenyl)furan-2-yl]methylidene}-4-methyl-2,6-dioxo-1,2,5,6-tetrahydropyridine-3-carbonitrile]",127
20,"Cc1ccc(C=C(C#N)C(=O)Nc2nccs2)o1 [9-P10, 2-cyano-3-(5-methylfuran-2-yl)-N-(1,3-thiazol-2-yl)prop-2-enamide]",126
21,"Cc1ccccc1NC(=O)C(C#N)=Cc1cc2c(cc1[N+](=O)[O-])OCO2 [9-P11, 2-cyano-N-(2-methylphenyl)-3-(6-nitro-1,3-dioxaindan-5-yl)prop-2-enamide]",120
22,"COC(=O)c1ccc(C=C(C#N)C(=O)NC(C)C)n1C [9-P12, methyl 5-{2-cyano-2-[(propan-2-yl)carbamoyl]eth-1-en-1-yl}-1-methyl-1H-pyrrole-2-carboxylate]",115
23,"CCCCNC(=O)C(C#N)=Cc1ccc(F)cc1 [9-P13, N-butyl-2-cyano-3-(4-fluorophenyl)prop-2-enamide]",124
24,"Cc1ccc(C=C(C#N)C(=O)Nc2ccc(C(=O)N(C)C)cc2)o1 [9-P14, 4-[2-cyano-3-(5-methylfuran-2-yl)prop-2-enamido]-N,N-dimethylbenzamide]",119
25,"N#CC(=Cc1cn2cc(Cl)ccc2n1)C(=O)NC1CCCC1 [9-P15, 3-{6-chloroimidazo[1,2-a]pyridin-2-yl}-2-cyano-N-cyclopentylprop-2-enamide]",120
26,"CNC(=O)C(C#N)=Cc1cc(C)n(-c2cccc3ccccc23)c1C [9-P16, 2-cyano-3-[2,5-dimethyl-1-(naphthalen-1-yl)-1H-pyrrol-3-yl]-N-methylprop-2-enamide]",109

row,SMILES,"viability at 48 h, 25 µM [%]"
1,"N#CC(=Cc1cc(Cl)ccc1O)C(=O)Nc1cccc2ccccc12 [9-P17, 3-(5-chloro-2-hydroxyphenyl)-2-cyano-N-(naphthalen-1-yl)prop-2-enamide]",130
2,"N#CC(=Cc1cnc2ccccn12)C(=O)NCc1ccccc1 [9-P18, N-benzyl-2-cyano-3-{imidazo[1,2-a]pyridin-3-yl}prop-2-enamide]",127
3,"COc1ccccc1NC(=O)C(C#N)=Cc1sccc1C [9-P19, 2-cyano-N-(2-methoxyphenyl)-3-(3-methylthiophen-2-yl)prop-2-enamide]",133
4,"CC(C)Oc1ccccc1C=C(C#N)C(=O)Nc1cccc(Cl)c1 [9-P20, N-(3-chlorophenyl)-2-cyano-3-[2-(propan-2-yloxy)phenyl]prop-2-enamide]",107
5,"N#CC(=Cc1ccc(C#N)cc1)C(=O)N1CCCC1 [9-P21, 4-[2-cyano-2-(pyrrolidine-1-carbonyl)eth-1-en-1-yl]benzonitrile]",117
6,"C/C(O)=C(\C#N)C(=O)Nc1ccc(-c2ccccc2Cl)cc1 [9-P22, (2Z)-N-{2'-chloro-[1,1'-biphenyl]-4-yl}-2-cyano-3-hydroxybut-2-enamide]",107
7,"O=C1C=CC(=O)N1c1ccccc1Sc1ccc(Cl)cc1 [10-A03, 1-{2-[(4-chlorophenyl)sulfanyl]phenyl}-2,5-dihydro-1H-pyrrole-2,5-dione]",7.21
8,"CC1Cc2cc(C(=O)CCl)ccc2N1S(C)(=O)=O (stereo not drawn) [10-A04, 2-chloro-1-(1-methanesulfonyl-2-methyl-2,3-dihydro-1H-indol-5-yl)ethan-1-one]",0.28
9,"COc1ccc(CCN2C(=O)C=CC2=O)cc1 [10-A05, 1-[2-(4-methoxyphenyl)ethyl]-2,5-dihydro-1H-pyrrole-2,5-dione]",5.85
10,"Cc1cc(C(=O)C(C)Cl)c(C)n1-c1ccccc1 (stereo not drawn) [10-A06, 2-chloro-1-(2,5-dimethyl-1-phenyl-1H-pyrrol-3-yl)propan-1-one]",99.9
11,"COC(=O)c1sccc1N1C(=O)C=CC1=O [10-A07, methyl 3-(2,5-dioxo-2,5-dihydro-1H-pyrrol-1-yl)thiophene-2-carboxylate]",16.6
12,"CC(Cl)C(=O)c1ccc(NS(C)(=O)=O)cc1 (stereo not drawn) [10-A08, N-[4-(2-chloropropanoyl)phenyl]methanesulfonamide]",93.7
13,"Cc1ccc(C(=O)CCl)o1 [10-A09, 2-chloro-1-(5-methylfuran-2-yl)ethan-1-one]",48.3
14,"CCOC(=O)c1[nH]c(C)c(C(=O)CCl)c1C [10-A10, ethyl 4-(2-chloroacetyl)-3,5-dimethyl-1H-pyrrole-2-carboxylate]",0.365
15,"CC(=O)Nc1c(C)cc(C)c(C(=O)CCl)c1C [10-A12, N-[3-(2-chloroacetyl)-2,4,6-trimethylphenyl]acetamide]",98.1
16,"Cc1cc(C(=O)CCl)co1 [10-A13, 2-chloro-1-(5-methylfuran-3-yl)ethan-1-one]",41.5
17,"CCOc1ccc(N2C(=O)C=CC2=O)cc1 [10-A14, 1-(4-ethoxyphenyl)-2,5-dihydro-1H-pyrrole-2,5-dione]",4.27
18,"O=C(CCl)Cc1ccc(Cl)cc1Cl [10-A15, 1-chloro-3-(2,4-dichlorophenyl)propan-2-one]",0.248
19,"O=C(CCl)c1c[nH]c(C(=O)N2CCCC2)c1 [10-A16, 2-chloro-1-[5-(pyrrolidine-1-carbonyl)-1H-pyrrol-3-yl]ethan-1-one]",0.377
20,"CC(Cl)C(=O)c1ccc(F)c(F)c1 (stereo not drawn) [10-A17, 2-chloro-1-(3,4-difluorophenyl)propan-1-one]",66.4
21,"O=C1C=CC(=O)N1c1ccc(SC(F)F)cc1 [10-A18, 1-{4-[(difluoromethyl)sulfanyl]phenyl}-2,5-dihydro-1H-pyrrole-2,5-dione]",3.22
22,"O=C(CCl)C1CC12CCCCC2 (stereo not drawn) [10-A19, 2-chloro-1-{spiro[2.5]octan-1-yl}ethan-1-one]",86.3
23,"Cn1ncc2ccc(CNC(=O)N3CCSSCC3)cc21 [10-A20, N-[(1-methyl-1H-indazol-6-yl)methyl]-1,2,5-dithiazepane-5-carboxamide]",93.8
24,"NC(=O)Cc1ccc(C(=O)CCl)s1 [10-A21, 2-[5-(2-chloroacetyl)thiophen-2-yl]acetamide]",46.6
25,"Cc1cccc(-n2c(C)cc(C(=O)CCl)c2C)c1 [10-A22, 2-chloro-1-[2,5-dimethyl-1-(3-methylphenyl)-1H-pyrrol-3-yl]ethan-1-one]",0.013
